Measured values: ChEMBL document CHEMBL1127350, “The squalestatins: novel inhibitors of squalene synthase. Enzyme inhibitory activities and in vivo evaluation of C1-modified analogues” (J Med Chem, 1994)
Values after ≈ are worked out from the molar mass of the structure shown. Values joined by “and” are separate entries in the source; they are usually repeats but may differ in a detail not shown here. Equal entries are not always repeated.

Legend:
[1] = system: Aspergillus niger; test: Compound was tested for an antifungal whole cell assay to obtain minimum inhibitory concentration against Aspergillus niger 48238; format: functional
[2] = target: T1, Squalene synthase (Rattus norvegicus, UniProt Q02769); test: Inhibition of juvenile male rat liver microsomal squalene synthase
T1 sequence (Q02769 whole entry): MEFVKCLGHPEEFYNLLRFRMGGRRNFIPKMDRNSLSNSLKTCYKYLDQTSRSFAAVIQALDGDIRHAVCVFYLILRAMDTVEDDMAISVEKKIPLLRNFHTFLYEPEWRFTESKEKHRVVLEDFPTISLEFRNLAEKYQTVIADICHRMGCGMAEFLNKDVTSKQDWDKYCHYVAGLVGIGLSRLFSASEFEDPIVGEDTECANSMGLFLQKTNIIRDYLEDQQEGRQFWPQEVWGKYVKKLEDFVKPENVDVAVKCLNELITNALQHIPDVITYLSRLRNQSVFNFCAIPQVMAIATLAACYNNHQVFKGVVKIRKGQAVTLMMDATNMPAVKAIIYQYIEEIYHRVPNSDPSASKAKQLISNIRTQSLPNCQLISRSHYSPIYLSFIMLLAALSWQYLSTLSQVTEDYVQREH

[3] = system: Candida albicans; test: Compound was tested for an antifungal whole cell assay to obtain minimum inhibitory concentration against Candida albicans C316; format: functional
[4] = system: Cryptococcus neoformans; test: Compound was tested for an antifungal whole cell assay to obtain minimum inhibitory concentration against Cryptococcus neoformans 2867E; format: functional
[5] = Compound was tested on serum cholesterol levels in marmosets after 7 days at 1(mg/kg/day) intravenous administration in 6 animals; format: functional, Callitrichinae
[6] = system: Rattus norvegicus; test: Tested for inhibition of cholesterol biosynthesis by intravenous administration to rats; format: functional
[7] = (§1) Compound was tested on serum cholesterol levels in marmosets after 7 days at intravenous 0.11 (mg/kg) dose in 6 animals; format: functional, Callitrichinae
[8] = Compound was tested on serum cholesterol levels in marmosets after 7 days at 1(mg/kg/day) intravenous administration in 8 animals; format: functional, Callitrichinae
[9] = Compound was tested on serum cholesterol levels in marmosets after 3 days at intravenous 0.33 (mg/kg) dose in 6 animals; format: functional, Callitrichinae
[10] = Compound was tested on serum cholesterol levels in marmosets after 2 days at intravenous 1 (mg/kg) dose in 6 animals; format: functional, Callitrichinae
[11] = as §1; format: functional, Callitrichinae; remark: listed apart in the source
[12] = Aspergillus niger, read-out: MIC
[13] = Candida albicans, read-out: MIC
[14] = Cryptococcus neoformans, read-out: MIC

CC(CC[C@]12O[C@H](C(=O)O)[C@@](O)(C(=O)O)[C@](C(=O)O)(O1)[C@H](O)[C@H]2O)C[C@@H](C)Cc1ccccc1 (stereo not given in full)
MIC [1, 12]: 125 µg/mL (≈ 259 µM)
IC50 [2]: 415 nM
MIC [3, 13]: 125 µg/mL (≈ 259 µM)
MIC [4, 14]: 125 µg/mL (≈ 259 µM)

C=C(CC[C@]12O[C@H](C(=O)O)[C@@](O)(C(=O)O)[C@](C(=O)O)(O1)[C@H](O)[C@H]2O)[C@H](OC(C)=O)[C@@H](C)Cc1ccccc1
Cholesterol reduction [5]: 56%
MIC [1, 12]: > 125 µg/mL
MIC [3, 13]: > 125 µg/mL
MIC [4, 14]: > 125 µg/mL

CC[C@H](C)C[C@H](C)CCC(=O)O[C@@H]1[C@@H](O)[C@@]2(CCC(C)C[C@@H](C)Cc3ccccc3)O[C@H](C(=O)O)[C@@](O)(C(=O)O)[C@]1(C(=O)O)O2 (stereo not given in full)
MIC [1, 12]: 16 µg/mL (≈ 25.1 µM)
MIC [3, 13]: 31 µg/mL (≈ 48.7 µM)
MIC [4, 14]: 1 µg/mL (≈ 1.57 µM)

CC(=O)O[C@@H](C(C)CC[C@]12O[C@H](C(=O)O)[C@@](O)(C(=O)O)[C@](C(=O)O)(O1)[C@H](O)[C@H]2O)[C@@H](C)Cc1ccccc1 (stereo not given in full)
MIC [1, 12]: 125 µg/mL (≈ 231 µM)
MIC [3, 13]: 125 µg/mL (≈ 231 µM)
MIC [4, 14]: 125 µg/mL (≈ 231 µM)

C=C(CC[C@]12O[C@H](C(=O)O)[C@@](O)(C(=O)O)[C@](C(=O)O)(O1)[C@H](O)[C@H]2O)[C@H](O)[C@@H](C)Cc1ccccc1
MIC [1, 12]: 62 µg/mL (≈ 125 µM)
IC50 [2]: 252 nM
MIC [3, 13]: 62 µg/mL (≈ 125 µM)
MIC [4, 14]: 62 µg/mL (≈ 125 µM)

C/C(=C\[C@@H](C)Cc1ccccc1)CC[C@]12O[C@H](C(=O)O)[C@@](O)(C(=O)O)[C@](C(=O)O)(O1)[C@H](O)[C@H]2O
IC50 [2]: 200 nM

CC[C@H](C)C[C@H](C)/C=C/C(=O)O[C@@H]1[C@@H](O)[C@@]2(CC/C(C)=C/[C@@H](C)Cc3ccccc3)O[C@H](C(=O)O)[C@@](O)(C(=O)O)[C@]1(C(=O)O)O2
MIC [1, 12]: 16 µg/mL (≈ 25.3 µM)
IC50 [2]: 32 nM
MIC [3, 13]: 31 µg/mL (≈ 49 µM)
MIC [4, 14]: 4 µg/mL (≈ 6.32 µM)

C=C(CC[C@]12O[C@H](C(=O)O)[C@@](O)(C(=O)O)[C@](C(=O)O)(O1)[C@H](OC(=O)CC[C@@H](C)C[C@@H](C)CC)[C@H]2O)[C@H](OC(C)=O)[C@@H](C)Cc1ccccc1
Cholesterol reduction [5]: 72%
MIC [1, 12]: 1 µg/mL (≈ 1.44 µM)
IC50 [2]: 13 nM
MIC [3, 13]: 8 µg/mL (≈ 11.5 µM)
MIC [4, 14]: 0.1 µg/mL (≈ 0.144 µM)

C=C(CC[C@]12O[C@H](C(=O)O)[C@@](O)(C(=O)O)[C@](C(=O)O)(O1)[C@H](OC(=O)/C=C/[C@@H](C)C[C@@H](C)CC)[C@H]2O)[C@H](O)[C@@H](C)Cc1ccccc1
Cholesterol reduction [5]: 59%
MIC [1, 12]: 16 µg/mL (≈ 24.7 µM)
MIC [3, 13]: 125 µg/mL (≈ 193 µM)
MIC [4, 14]: 1 µg/mL (≈ 1.54 µM)

CC[C@H](C)C[C@H](C)CCC(=O)O[C@@H]1[C@@H](O)[C@@]2(C/C=C(\C)[C@H](OC(C)=O)[C@@H](C)Cc3ccccc3)O[C@H](C(=O)O)[C@@](O)(C(=O)O)[C@]1(C(=O)O)O2
MIC [1, 12]: 31 µg/mL (≈ 44.7 µM)
IC50 [2]: 22 nM
MIC [3, 13]: 125 µg/mL (≈ 180 µM)
MIC [4, 14]: 8 µg/mL (≈ 11.5 µM)

CC[C@H](C)C[C@H](C)CCC(=O)O[C@@H]1[C@@H](O)[C@@]2(CCC(C)[C@H](O)[C@@H](C)Cc3ccccc3)O[C@H](C(=O)O)[C@@](O)(C(=O)O)[C@]1(C(=O)O)O2 (stereo not given in full)
MIC [1, 12]: 31 µg/mL (≈ 47.5 µM)
MIC [3, 13]: 125 µg/mL (≈ 192 µM)
MIC [4, 14]: 8 µg/mL (≈ 12.3 µM)

C=C(CC[C@]12O[C@H](C(=O)O)[C@@](O)(C(=O)O)[C@](C(=O)O)(O1)[C@H](OC(=O)/C=C/[C@@H](C)C[C@@H](C)CC)[C@H]2O)[C@H](OC(C)=O)[C@@H](C)Cc1ccccc1
ED50 [6]: 0.1 mg/kg
Cholesterol reduction [7]: 39%
MIC [1, 12]: 16 µg/mL (≈ 23.2 µM)
MIC [3, 13]: 8 µg/mL (≈ 11.6 µM)
Cholesterol reduction [8]: 86%
Cholesterol reduction [9]: 53% and 63% and 62%
Cholesterol reduction [10]: 47% and 53% and 60%
MIC [4, 14]: 0.5 µg/mL (≈ 0.724 µM)
Cholesterol reduction [11]: 37% and 41%

CC[C@H](C)C[C@H](C)/C=C/C(=O)O[C@@H]1[C@@H](O)[C@@]2(C/C=C(\C)CC(C)Cc3ccccc3)O[C@H](C(=O)O)[C@@](O)(C(=O)O)[C@]1(C(=O)O)O2 (single isomer, unassigned)
MIC [1, 12]: 31 µg/mL (≈ 49 µM)
IC50 [2]: 65 nM
MIC [3, 13]: 31 µg/mL (≈ 49 µM)
MIC [4, 14]: 2 µg/mL (≈ 3.16 µM)

CC[C@H](C)C[C@H](C)CCC(=O)O[C@@H]1[C@@H](O)[C@@]2(CCC(C)[C@H](OC(C)=O)[C@@H](C)Cc3ccccc3)O[C@H](C(=O)O)[C@@](O)(C(=O)O)[C@]1(C(=O)O)O2 (stereo in doubt; 2d)
MIC [1]: 8 µg/mL (≈ 11.5 µM)
IC50 [2]: 3 nM
MIC [3]: 16 µg/mL (≈ 23 µM)
MIC [4]: 0.5 µg/mL (≈ 0.72 µM)

CC[C@H](C)C[C@H](C)CCC(=O)O[C@@H]1[C@@H](O)[C@@]2(CCC(C)[C@H](OC(C)=O)[C@@H](C)Cc3ccccc3)O[C@H](C(=O)O)[C@@](O)(C(=O)O)[C@]1(C(=O)O)O2 (stereo in doubt; 2f)
MIC [1]: 125 µg/mL (≈ 180 µM)
IC50 [2]: 165 nM
MIC [3]: 125 µg/mL (≈ 180 µM)
MIC [4]: 4 µg/mL (≈ 5.76 µM)
